Legend:
p75^NTR = biological target: T1, p75^NTR (Homo sapiens, UniProt P08138); assay: p75NTR activation in HEK cells transfected with p75NTR and Traf6 (immunoprecipitation); format: cell-based; settings: 500 nM, 30′
T1 construct: expressed in transfected cells; host or cells: HEK293T (transient, lipofectamine)
Protocol: PC12 and HEK293T cells were obtained from LGC Promochem GmbH (Teddington, UK) and cultured under the conditions specified by the manufacturer. NIH3T3 cells were stably transfected with human TrkB plasmid. PC12 cells were grown in DMEM medium (11965084, Gibco, Grand Island, NY, USA) containing 10% Horse Serum (16050122, Gibco, Grand Island, NY, USA), 5% Fetal Bovine Serum (10270106, Gibco, Grand Island, NY, USA), 100 units/mL Penicillin and 0.1 mg/mL Streptomycin (15140122, Gibco, Grand Island, NY, USA) at 5% CO2 and 37 °C. Cells were used between passages 5–20. HEK293T and NIH3T3 cells were grown in the same medium as PC12 cells supplemented with 10% Fetal Bovine Serum and lacking Horse Serum. For transient transfection of HEK293T cells, lipofectamine was used and cells were transfected with human p75^NTR and Traf6 plasmids. To determine the intracellular activity of endogenous secretases, we tagged (tGFP) a truncated mutant (Tm) of APP containing the original amino acids sequence from M516 to N773. This Tm conserves the secretases cleavage sites, clathrin binding site, tau protein binding site, collagen binding site and some glycosylation sites critical for protein localization and intracellular trafficking. The cDNA of the TmAPP gene was amplified by PCR and subcloned into pturbo-GFP vector. […]

PC12 cells = assay: CellTox assay, serum deprivation-induced cell death; format: cell-based
Protocol: CellTox assay (G8742, Promega Corporation, Maddison, WI, USA) was used to assess survival of PC12 cells under serum deprivation conditions. PC12 cells were plated in 96-well plates, starved of serum for 4 h and subsequently treated with NGF (100 ng/mL) or ENT-A013 (500 nM) in the presence or absence of TrkA inhibitor GW441756 (20 μM, G-190, Alomone labs, Jerusalem, Israel) for 24 h. CellTox assay reagents and Hoescht (1:10,000, H3570, Invitrogen, Waltham, MA, USA) were added to each well for 30′ and cells were then imaged with a Zeiss AXIO Vert A1 fluorescent microscope (Zeiss, Jena, Germany). CellTox positive cells were normalized to total number of cells for each image.

[1] = system: Primary hippocampal neurons; assay: Synaptophysin synapse assay in primary hippocampal neurons treated with oligomeric Aβ; format: cell-based, mouse; settings: 5 μM oligomeric Aβ, 500 nM, 4 h
Protocol: Primary hippocampal neurons were isolated from E17.5 mouse embryos (C57BL/6J, The Jackson Laboratory, Bar Harbor, ME, USA) as previously described and cultured with Neurobasal medium containing 2% B27, 1X GlutaMax, 10 mM HEPES and 1% PenStrep. Cells were maintained in a humified incubator at 37 °C and 5% CO2. For TUNEL assay, cells were left in culture for 16–18 days and then treated with 5 μM oligomeric Aβ along with ENT-A013 (500 nM, every 24 h) for 48 h. Cells were then fixed with 4% PFA and labelled with TUNEL (F. Hoffmann–La Roche Ltd., Basel, Switzerland, cat# 11684795910) following the manufacturer’s protocol. Subsequently, cells were immunostained against Tuj1 and imaged with confocal microscopy. For synaptic plasticity assay, cells were left in culture for 16–18 days and then treated with 5 μM oligomeric Aβ along with ENT-A013 (500 nM) for 4 h. Cells were then fixed with 4% PFA and immunostained against Tuj1 and Synaptophysin (1:1000, PA1-1043, Invitrogen, Waltham, MA, USA), anti-mouse Alexa fluor 488 (1:1000, A-11029, Invitrogen, Waltham, MA, USA) and anti-rabbit Alexa fluor 546 (1:1000, A10040, Invitrogen, Waltham, MA, USA). Images were acquired using confocal microscopy and the total area of synaptophysin positive puncta was measured and normalized to Tuj1 total area.

T1 sequence (P08138 29-427): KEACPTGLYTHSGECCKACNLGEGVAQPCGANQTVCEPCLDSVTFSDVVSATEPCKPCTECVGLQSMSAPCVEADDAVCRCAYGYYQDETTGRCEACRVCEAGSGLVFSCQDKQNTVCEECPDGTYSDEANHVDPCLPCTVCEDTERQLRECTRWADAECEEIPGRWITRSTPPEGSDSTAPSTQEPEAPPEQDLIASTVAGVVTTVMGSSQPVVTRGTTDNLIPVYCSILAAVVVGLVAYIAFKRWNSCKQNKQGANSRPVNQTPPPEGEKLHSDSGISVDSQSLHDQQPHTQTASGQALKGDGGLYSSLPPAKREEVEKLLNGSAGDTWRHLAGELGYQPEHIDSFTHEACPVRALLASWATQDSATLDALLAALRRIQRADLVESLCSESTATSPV

In the case of `CC12CCC(O)CC1=CCC1C2CCC2(C)C1CCC21CC1C=CBr` [ENT-A013, (2′R,3S,17S)-2′-(2-Bromovinyl)-5-Androstene-17,1′-Cyclopropan-3-ol], the “p75NTR activation (in words)” value (p75^NTR) is reported as “does not activate”, the IC50 (PC12 cells; Rattus norvegicus, PC-12, serum deprivation, CellTox, read-out: IC50 (anti-apoptotic dose–response)) is reported as 167 nM and the “CellTox positive cells normalized to total number of cells” value (PC12 cells; serum deprivation, 24 h, 500 nM) is reported as 0.11 ± 0.01. For the same compound, the “synapse number (synaptophysin area normalized to Tuj1 area)” value [1] was 1.08 ± 0.08 % of control FC.

Source: paper PMC8945229, “Development and Biological Characterization of a Novel Selective TrkA Agonist with Neuroprotective Properties against Amyloid Toxicity” (Biomedicines, 2022)
